Measured values: patent US5712300A, “Hydroxamic acid derivatives useful for the treatment of diseases related to connective tissue degradation” (priority 1997, dated 1998)

Key:
Assay type in all cases: biochemical
Collagenase = molecular target: T1, Collagenase (Homo sapiens, UniProt P03956); test: MMP inhibition by particle concentration fluorescence technique (collagenase); settings: pH 7.5; 15 min enzyme preincubation; substrate 1-3 h at room temperature; read-out: MMP Inhibition Constants, Collagenase Ki
T1 sequence (P03956 100-469): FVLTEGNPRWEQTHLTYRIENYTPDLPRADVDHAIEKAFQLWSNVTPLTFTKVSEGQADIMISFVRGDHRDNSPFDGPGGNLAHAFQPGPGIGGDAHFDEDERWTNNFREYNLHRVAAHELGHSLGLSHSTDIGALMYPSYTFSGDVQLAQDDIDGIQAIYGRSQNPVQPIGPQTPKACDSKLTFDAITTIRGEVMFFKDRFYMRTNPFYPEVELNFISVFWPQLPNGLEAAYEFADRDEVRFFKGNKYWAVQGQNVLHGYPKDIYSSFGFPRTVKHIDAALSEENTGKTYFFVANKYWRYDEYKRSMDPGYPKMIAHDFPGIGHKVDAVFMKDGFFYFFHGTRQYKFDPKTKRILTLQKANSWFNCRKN
Procedure: (§1) Inhibitory activity is evaluated in one or more of the MMP enzymes (stromelysin, gelatinase, and collagenase) in vitro using a particle concentration fluorescence techniques. An inhibitor binds to MMP enzymes prevents the degradation of a substrate of stromelysin, gelatinase, or collagenase. The substrate is attached with a fluorescein and a biotin. The intact substrate then binds to an avidin-coated particle via the biotin moiety. Once the particle is washed and dried, a fluorescent signal is generated since the fluorescent group is attached to the particle. Without an inhibitor present, the substrate is degraded by MMP enzymes and the fluorescein group is removed, therefore, no fluorescent signal can be detected. Testing compounds are dissolved in DMSO to the desired concentration, then the solutions are diluted to 1:5 with MMP buffer (50 mM Tris-HCl, pH 7.5; 150 mM NaCl; 0.02% NAN3). Serial two-fold dilutions of each compound are prepared. A concentrated, activated enzyme solution is transferred into each plate of the testing compounds, and the mixture is incubated at room temperature for 15 minutes. Thawed MMP substrate is then added into all plates, and the plates are incubate in the dark for 1-3 hours at room temperature. At this point, the substrate mixture is reacted with 0.1% avidin-coated polystyrene particles.

Gelatinase = test: MMP inhibition by particle concentration fluorescence technique (gelatinase); settings: pH 7.5; 15 min enzyme preincubation; substrate 1-3 h at room temperature; read-out: MMP Inhibition Constants, Gelatinase Ki
Procedure: as §1

Stromelysin = Stromelysin (Homo sapiens, UniProt P08254); test: MMP inhibition by particle concentration fluorescence technique (stromelysin); settings: pH 7.5; 15 min enzyme preincubation; substrate 1-3 h at room temperature; read-out: MMP Inhibition Constants, Stromelysin Ki
Sequence of Stromelysin (P08254 100-477): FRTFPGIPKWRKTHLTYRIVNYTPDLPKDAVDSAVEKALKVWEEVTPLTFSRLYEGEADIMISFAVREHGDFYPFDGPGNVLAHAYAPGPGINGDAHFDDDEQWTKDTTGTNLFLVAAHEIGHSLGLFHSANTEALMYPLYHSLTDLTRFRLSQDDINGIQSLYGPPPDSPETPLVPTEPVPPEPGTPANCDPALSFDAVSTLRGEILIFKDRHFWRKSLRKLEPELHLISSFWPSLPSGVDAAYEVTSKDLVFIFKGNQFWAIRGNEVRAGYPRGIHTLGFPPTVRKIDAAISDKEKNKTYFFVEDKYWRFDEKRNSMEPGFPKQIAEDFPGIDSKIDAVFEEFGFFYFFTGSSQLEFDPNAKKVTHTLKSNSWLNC
Source text: An inhibitor binds to MMP enzymes prevents the degradation of a substrate of stromelysin, gelatinase, or collagenase. The substrate is attached with a fluorescein and a biotin. The intact substrate then binds to an avidin-coated particle via the biotin moiety. Once the particle is washed and dried, a fluorescent signal is generated since the fluorescent group is attached to the particle. Without an inhibitor present, the substrate is degraded by MMP enzymes and the fluorescein group is removed, therefore, no fluorescent signal can be detected. […] Serial two-fold dilutions of each compound are prepared. A concentrated, activated enzyme solution is transferred into each plate of the testing compounds, and the mixture is incubated at room temperature for 15 minutes.

CC(C)C[C@@]1(CC(=O)NO)CCN([C@H](C(=O)NCC2CC2)C2CCCCC2)C1=O (relative stereo) [Example 59, [S-(R*,R*)]-α^1 -Cyclohexyl-N^1-cyclopropylmethyl-N^3-hydroxy-3-(2-methylpropyl)-2-oxo-1,3-pyrrolidinediacetamide]
Ki (Collagenase): 3.3 nM | Ki (Gelatinase): 11 nM | Ki (Stromelysin): 230 nM

CC(C)C[C@@]1([C@@H](CCN2C(=O)c3ccccc3C2=O)C(=O)NO)CCN(CCCc2ccccc2)C1=O (relative stereo) [Example 67, α-[2-(1,3-Dihydro-1,3-dioxo-2H-isoindol-2-yl)ethyl]-N-hydroxy-3-(2-methylpropyl)-2-oxo-1-(3-phenylpropyl)-3-pyrrolidineacetamide]
Ki (Collagenase): 5000 nM | Ki (Gelatinase): 36 nM | Ki (Stromelysin): 216 nM

CNC(=O)[C@H](C1CCCCC1)N1CC[C@](CC(=O)NO)(CC(C)C)C1=O [Example 50, [S-(R*,R*)]-α^1 -Cyclohexyl-N^3-hydroxy-N^1-methyl-3-(2-methylpropyl)-2-oxo-1,3-pyrrolidinediacetamide]
Ki (Collagenase): 6.06 nM | Ki (Gelatinase): 17 nM | Ki (Stromelysin): 283 nM

CC(C)C[C@@]1(CC(=O)NO)CCN([C@@H](Cc2ccccc2)C(=O)NC2CCNCC2)C1=O [Example 44, [S-(R*,R*)]-N^3 -Hydroxy-3-(2-methylpropyl)-2-oxo-α^1-(phenylmethyl)-N^1-(4-piperdinyl)-1,3-pyrrolidinediacetamide]
Ki (Collagenase): 20.2 nM | Ki (Gelatinase): 11 nM | Ki (Stromelysin): 4000 nM

CC(C)CC1(C(CCN2C(=O)c3cc(F)c(F)cc3C2=O)C(=O)NO)CCN(CCc2ccccc2)C1=O (stereo not drawn) [Example 64, α-[2-(5,6-Difluoro-1,3-dihydro-1,3-dioxo-2H-isoindol-2-yl)ethyl]-N-hydroxy-3-(2-methylpropyl)-2-oxo-1-(2-phenylethyl)-3-pyrrolidineacetamide]
Ki (Collagenase): 735 nM | Ki (Gelatinase): 49 nM | Ki (Stromelysin): 107 nM

CC(C)C[C@@]1([C@@H](CCNS(=O)(=O)c2ccccc2)C(=O)NO)CCN(CCc2ccccc2)C1=O (relative stereo) [Example 83, N-Hydroxy-3-(2-methylpropyl)-2-oxo-1-(2-phenylethyl)-α-[2-[(phenylsulfonyl)amino]ethyl]-3-pyrrolidineacetamide]
Ki (Collagenase): 17000 nM | Ki (Gelatinase): 580 nM | Ki (Stromelysin): 107 nM

CC(C)C[C@@]1([C@@H](CCN2C(=O)c3ccccc3C2=O)C(=O)NO)CCN(Cc2cccc(F)c2)C1=O (relative stereo) [Example 25]
Ki (Collagenase): 1900 nM | Ki (Gelatinase): 1280 nM | Ki (Stromelysin): 649 nM

CC(C)C[C@@]1(CC(=O)NO)CCN([C@@H](Cc2ccccc2)C(=O)Nc2ccncc2)C1=O [Example 41, [S-(R*,R*)]-N^3 -Hydroxy-3-(2-methylpropyl)-2-oxo-α^1-(phenylmethyl)-N^1-(4-pyridinyl)-1,3-pyrrolidinediacetamide]
Ki (Collagenase): 2.8 nM | Ki (Gelatinase): 2.3 nM | Ki (Stromelysin): 14 nM

CC(C)C[C@@]1([C@@H](CCN2C(=O)c3cc4ccccc4cc3C2=O)C(=O)NO)CCN(CCc2ccccc2)C1=O (relative stereo) [Example 6]
Ki (Gelatinase): 82 nM | Ki (Stromelysin): 491 nM

CNC(=O)[C@H](CC1CCCCC1)N1CC[C@](CC(=O)NO)(CC(C)C)C1=O [Example 33, [S-(R*,R*)]-α^1-(Cyclohexylmethyl)-N^3-hydroxy-N^1-methyl-3-(2-methylpropyl)-2-oxo-1,3-pyrrolidinediacetamide]
Ki (Collagenase): 31 nM

CNC(=O)[C@H](Cc1ccccc1)N1CC[C@@](CC(C)C)([C@H](CCN2C(=O)c3ccccc3C2=O)C(=O)NO)C1=O [Example 58, [3S-[1(R*),3R*(R*)]]-α^3-[2-(1,3-Dihydro-1,3-dioxo-2H-isoindol-2-yl)ethyl]-N^3-hydroxy-N^1-methyl-3-(2-methylpropyl)-2-oxo-α^1-(phenylmethyl)-1,3-pyrrolidinediacetamide]
Ki (Gelatinase): 2.9 nM | Ki (Stromelysin): 23 nM

CC(C)C[C@@]1([C@@H](CCN2C(=O)c3ccccc3C2=O)C(=O)NO)CCN(CCc2ccccc2)C1=O [Example 5, (3S)-α-[2-(1,3-Dihydro-1,3-dioxo-2H-isoindol-2-yl)ethyl]-N-hydroxy-3-(2-methylpropyl)-2-oxo-1-(2-phenylethyl)-3-pyrrolidineacetamide]
Ki (Collagenase): 4370 nM | Ki (Gelatinase): 115 nM

CC(C)C[C@@]1([C@@H](CCN2C(=O)c3c(F)c(F)c(F)c(F)c3C2=O)C(=O)NO)CCN(CCc2ccccc2)C1=O (relative stereo) [Example 7, N-Hydroxy-3-(2-methylpropyl)-2-oxo-1-(2-phenylethyl)-α-[2-(4,5,6,7-tetrafluoro-1,3-dihydro-1,3-dioxo-2H-isoindol-2-yl)ethyl]-3-pyrrolidineacetamide]
Ki (Gelatinase): 1420 nM | Ki (Stromelysin): 1270 nM

CC(C)C[C@@]1([C@@H](CCN2Cc3cc(F)c(F)cc3C2=O)C(=O)NO)CCN(CCc2ccccc2)C1=O [Example 89, [R-(R*,S*)]-5,6-Difluoro-1,3-dihydro-N-hydroxy-α-[3-(2-methylpropyl)-2-oxo-1-(2-phenylethyl)-3-pyrrolidinyl]-1-oxo-2H-isoindole-2-butanamide]
Ki (Gelatinase): 146 nM | Ki (Stromelysin): 318 nM

CC(C)C[C@@]1([C@H](CCN2C(=O)c3ccccc3C2=O)C(=O)NO)CCN(CCc2ccccc2)C1=O [Example 71, [S-(R*,R*)]-1,3-Dihydro-N-hydroxy-α-[3-(2-methylpropyl)-2-oxo-1-(2-phenylethyl)-3-pyrrolidinyl]-1,3-dioxo-2H-isoindole-2-butanamide]
Ki (Collagenase): 98 nM

CCOC(=O)N(CC[C@@H](C(=O)NO)[C@]1(CC(C)C)CCN(CCc2ccccc2)C1=O)C(=O)OCc1ccccc1 (relative stereo) [Example 70, Ethyl Phenylmethyl[4-(hydroxyamino)-3-[3-(2-methylpropyl)-2-oxo-1-(2-phenylethyl)-3-pyrrolidinyl]-4-oxobutyl]imidodicarbonate]
Ki (Collagenase): 1200 nM | Ki (Stromelysin): 194 nM

CC(C)C[C@@]1([C@@H](CCCSc2cccs2)C(=O)NO)CCN(CCc2ccccc2)C1=O (relative stereo) [Example 18]
Ki (Gelatinase): 3040 nM | Ki (Stromelysin): 1470 nM

CC(C)C[C@@]1([C@@H](CCN2C(=O)c3c(F)ccc(F)c3C2=O)C(=O)NO)CCN(CCc2ccccc2)C1=O (relative stereo) [Example 13, α-[2-(4,7-Difluoro-1,3-dihydro-1,3-dioxo-2H-isoindol-2-yl)ethyl]-N-hydroxy-3-(2-methylpropyl)-2-oxo-1-(2-phenylethyl)-3-pyrrolidineacetamide]
Ki (Gelatinase): 280 nM | Ki (Stromelysin): 334 nM

CC(C)C[C@@]1([C@@H](CCNC(=O)c2cccc(F)c2)C(=O)NO)CCN(CCc2ccccc2)C1=O (relative stereo) [Example 77, α-[2-[(3-Fluorobenzoyl)amino]ethyl]-N-hydroxy-3-(2-methylpropyl)-2-oxo-1-(2-phenylethyl)-3-pyrrolidineacetamide]
Ki (Collagenase): 68.5 nM | Ki (Stromelysin): 146 nM

CC(C)CC1(CC(=O)NO)C(=O)N(CCc2ccccc2)C(=O)N1C (stereo not shown) [Example 36, N-Hydroxy-3-methyl-4-(2-methylpropyl)-2,5-dioxo-1-(2-phenylethyl)-4-imidazolidineacetamide]
Ki (Gelatinase): 44000 nM | Ki (Stromelysin): 2400 nM

CC(C)C[C@@]1([C@@H](CCN2Cc3cc(F)c(F)cc3C2=O)C(=O)NO)CCN(CCc2ccccc2)C1=O (relative stereo) [Example 85, 5,6-Difluoro-1,3-dihydro-N-hydroxy-α-[3-(2-methylpropyl)-2-oxo-1-(2-phenylethyl)-3-pyrrolidinyl]-1-oxo-2H-isoindole-2-butanamide]
Ki (Gelatinase): 31 nM | Ki (Stromelysin): 116 nM

CC(C)C[C@@]1([C@@H](CCSc2cccs2)C(=O)NO)CCN(CCc2ccccc2)C1=O (relative stereo) [Example 17, N-Hydroxy-3-(2-methylpropyl)-2-oxo-1-(2-phenylethyl)-α-[2-(2-thienylthio)ethyl]-3-pyrrolidineacetamide]
Ki (Gelatinase): 4090 nM | Ki (Stromelysin): 2220 nM

CC(C)C[C@@]1([C@@H](CCN2C(=O)c3ccccc3C2=O)C(=O)NO)CCN(CCc2ccccc2)C1=O (relative stereo) [Example 4, α-[2-(1,3-Dihydro-1,3-dioxo-2H-isoindol-2-yl)ethyl]-N-hydroxy-3-(2-methylpropyl)-2-oxo-1-(2-phenylethyl)-3-pyrrolidineacetamide]
Ki (Collagenase): 5700 nM | Ki (Gelatinase): 204 nM
